d = 2'-deoxy (DNA)

The text below walks through data of patent US20050208058A1, “Compositions and methods for modulating cell division” (priority 2003, published 2005).

Holding throughout (assay type): cell-based, human
In data set [1] the test system is RPE cells. The experiment in a line: CFDA-SE labeling cell division assay. To be noted: during the 72 hours following siRNA treatment; FIG. 4. An excerpt: RPE cells were transfected with siRNA directed to pericentrin A/B or lamin (control) as described in Example 2. Immediately prior to siRNA transfection cells were labeled with a succinimidyl ester of carboxyfluorescein diacetate (CFDA-SE from Molecular Probes, Eugene, Oreg.) according to manufacturers instructions. CFDA-SE is a fluorescent marker that spontaneously and irreversibly couples to free amines on intracellular and cell-surface proteins. When a cells divides, CFDA-SE labeling is inherited equally by daughter cells, which are therefore half as fluorescent as the parent cell. Cells were prepared for and analyzed by fluorescence microscopy as described in Example 1.

The subject of data set [2] is RPE cells. The experiment in a line: Flow cytometry (FACS) of nocodazole-induced shift from G1 to G2/M peak after siRNA treatment. The note with it: siRNA 50-70 hours, nocodazole 5 μg/mL 12 hours; FIG. 3A, FIG. 8. How it is done:
(§1) For flow cytometry (i.e., fluorescence-activated cell sorter or FACS) experiments, siRNAs were delivered to cells as described above, and were incubated for 50-70 hours. To synchronize cells, nocodazole was added to the cells to a concentration of 5 μg/mL for 12 hours. Cells were stained with propidium iodide and analyzed by flow cytometry (FACSCAN; Becton Dickinson) using FLOJO® software (Tree Star, Inc., Ashland, Oreg.).
In another approach to evaluating the effect requirement for centrosomal gene products, fluorescence assisted cell sorting (flow cytometry or FACS) analysis was performed as described in Gromley et al., J. Cell Biol., 161:535-545 (2003). Briefly, cells were treated with indicated siRNA for at least 50-70 hours, unless otherwise indicated. Cells were synchronized by adding nocodazole to 5 μg/mL for 12 hours prior to cell collection. Cells were collected, fixed in methanol, stained with propidium iodide, and analyzed by flow cytometry (FACSCAN®;Becton Dickinson) using FLOJO® software (Tree Star, Inc.).
FIG. 3A is a graph showing the effects of depleting the indicated centrosomal gene products by siRNA treatment. The left side of the graph depicts the FACS results for treated cells before the addition of nocodazole (-noc). The major fluorescence peak in (-noc) cells is the G1 peak, (i.e., lower DNA fluorescence). The right side of the graph depicts the results for cells after nocodazole treatment (+noc). […] This may be due to inefficient silencing caused by the siRNAs used.
The ability of a number of centrosomal genes to inhibit cell cycling of RPE1 cells was tested by treating cells with siRNAs and performing FACS analysis as described in Example 2.

For data set [3], the system named is RPE cells. The experiment in a line: BrDU incorporation after siRNA treatment and nocodazole synchronization. To be noted: relative to control cells (siRNA to lamin), after nocodazole release; FIG. 2A. As for the experimental part:
To further study the effects of silencing centrosomal genes, the following cell cycle experiments were performed using RPE cells. In immunofluorescence experiments, cells were delivered by OLIGOFECTAMINE in a media solution containing between 1-100 nanomolar concentration of siRNAs. After 4 hours of incubation with lipofectamine, cells were washed, and cell cycle progression was assayed by (i) treating cells with 5-Bromo-2′-deoxyuridine (BrDU from Sigma, St Louis, Mo.) for 24 hours and staining for BrDU or (ii) staining cells with antibody to Ki-67 (BD Biosciences) according to manufacturer's instructions. BrDU treatment and staining were performed as follows: after 50-70 hours incubation with siRNA, BrDU was added to cells at a final concentration of 5 μg/ml. Cells were fixed in −20° C. methanol and then treated with 2N HCL at 22° C. for 30 minutes, incubated with 1:500 mouse anti-BrdU antibody (Becton Dickinson, Palo Alto, Calif.), and labeled with 1:1,000 goat FITC-mouse antibody (Molecular Probes, Inc.). Cells were also treated with 4′,6-diamidino-2-phenylindole (DAPI) (Molecular Probes) according to the manufacturer's instructions. Cells were prepared, imaged, and the resulting images were deconvolved as described in Example 1.
Upon release from nocodazole treatment, proliferating cells typically resume cell cycle progression. Chromosomal DNA in the cells was imaged using DAPI (faint ghost-like staining) and/or BrDU (brighter staining). Although DAPI can be used to visualize DNA at any stage of the cell cycle, BrDU is only incorporated into newly synthesized DNA only during S-phase. Thus, BrDU incorporation can be used as a marker of cells that progress through at least one S-phase of the cell cycle. Control cells in this experiment were treated with siRNA to lamin.

For a further data set, the system named is RPE1 cells. The experiment in a line: FACS of nocodazole shift with kinase inhibitors and siGCP3 (p38 dependence). To be noted: FIG. 7. As for the experimental part: as §1
The following experiment was performed to test if p38, an upstream component of p53 signaling, is required for the centrosomal cell cycle arrest phenotype described herein. The following inhibitors were added to RPE1 cells 1 hour prior to siRNA treatment at the indicated concentrations: SB203580 (p38 inhibitor) 40 μM, SB202190 (p38 inhibitor) 10 μM, and PD98059 (MAPK inhibitor) 50 μM. All inhibitors were obtained from Calbiochem and dissolved in DMSO. siRNA treatment and FACS analysis was performed as described in Example 2.

Another data set relates to δ-tubulin. The experiment in a line: Immunofluorescence of centrosomal δ-tubulin after siRNA treatment. To be noted: vs lamin control; FIG. 1D. As for the experimental part:
(§2) To test the ability of siRNAs to silence centrosomal gene products, cells were treated with siRNAs for 24 hours. Cells were diploid, telomerase-immortalized human retinal pigment epithelial (RPE1) cells (hTERT-RPE1s from Clontech, Palo Alto, Calif.) (see Morales et al., Nat Genet, 21:115-118, 1999). siRNAs directed to δ-tubulin (SEQ ID NO:2), γ-tubulin (SEQ ID NO:4), GCP2 (SEQ ID NO:5), GCP3(SEQ ID NO:6), cNAP1 (SEQ ID NO:8), PCM1 (SEQ ID NO:9), ninein (SEQ ID NO:21), NEK2a (SEQ ID NO:10), centrin2 (SEQ ID NO:12), CDC14A (SEQ ID NO:13), gapcena (SEQ ID NO:15), nemo (SEQ ID NO:16), pericentrin (SEQ ID NO:23), lamin A/C (CUGGACUUCCAGAAGAACA, SEQ ID NO: 24) zyxin (UGUGGCUGUCAACGAACUC, SEQ ID NO:25), and p53 (GGACAAGGGUUGGGCUGGG, SEQ ID NO:26) were made as complementary single stranded 19-mer siRNAs with 3′ dTdT overhangs (Dharmacon Inc., Lafayette, Colo.), deprotected, annealed and delivered into cells using OLIGOFECTAMINE® from Invitrogen (Carlsbad, Calif.). Nucleotides were delivered in media containing up to 100 nanomolar concentrations of siRNAs.
Commercial antibodies to the following proteins were used in this study: lamin A/C (Cell Signaling Technology, Beverly, Mass.), δ-, ε-, or γ-tubulin (Sigma-Aldrich, St. Louis, Mo.), zyxin (Santa Cruz Biotechnology, Santa Cruz, Calif.), Nek2A (Zymed, South San Francisco, Calif.), p53 (Calbiochem, San Diego, Calif.). […]

In the next data set the test system is cdc14A. The experiment in a line: Anti-cdc14A immunofluorescence intensity in siRNA-treated cells. The note with it: 25 cells; FIG. 1C. How it is done:
as §2, with “siRNAs. […]” for “siRNAs.”
FIG. 1C is a histogram quantifying anti-cdc14A immunofluorescence observed in 25 cells treated with (i) siRNA to CDC14 (siCDC14) or (ii) control siLamin.

As to “GCAGCUGAGCUGAAGGAGA (siRNA; RNA, 3' dTdT, backbone not given here) [pericentrin A/B, siRNA directed to both pericentrin A and pericentrin B]”, in the data set with RPE cells [1], the “cells that never divided” value came out at 40%.
“GUCCCCCAAACAGAGAAAC (siRNA; RNA, 3' dTdT, backbone not given here) [PCM-1, siRNA directed to PCM1]”: the “inhibition of nocodazole-induced shift from G1 peak to G2/M peak” value (“inhibition of nocodazole-induced shift” below) with RPE cells [2] is on record as “prevented nocodazole-induced shift”.
Regarding “AGGGAACCAAGGAAAGGCA (siRNA; RNA, 3' dTdT, backbone not given here) [NEK, siRNA directed to NEK2]”, the “inhibition of nocodazole-induced shift” value with RPE cells [2] is reported as “did not cause a pronounced inhibition of the shift”. The “incorporation of BrDU into chromosomal material” value (“incorporation” below) in the data set with RPE cells [3] is on record as “less pronounced”.
On to “GAGCAAAAGCAGGAGAUCC (siRNA; RNA, 3' dTdT, backbone not given here) [centrin, siRNA directed to centrin2]”, for which the “incorporation” value in the data set with RPE cells [3] was “clearly inhibited incorporation of BrDU”.
With `COc1cccc(-c2cc(=O)c3ccccc3o2)c1N` [map kinase inhibitor, PD98059], the “effect of inhibitor alone on nocodazole-induced shift from G1 to G2/M peak” value with RPE1 cells (SB203580 40 μM, SB202190 10 μM, PD98059 50 μM) is given as “did not inhibit the nocodazole-induced shift”. In addition, in the data set on RPE1 cells (inhibitor added 1 hour prior to siGCP3, SB203580 40 μM, SB202190 10 μM, PD98059 50 μM), the “effect of inhibitor on siGCP3-induced cell cycle arrest” value is “did not affect siGCP3's ability to cause cell cycle arrest”.
On to “GGUUCUGGAAACAACUGGG (siRNA; RNA, 3' dTdT, backbone not given here) [siδ-tubulin, siRNA directed to δ-tubulin]”, for which, in the data set with δ-tubulin, the “centrosomal δ-tubulin staining” value is “reduced the number and/or fluorescence intensity of centrosomal staining”.
With “ACUUCGCCUGGUCCAACUU (siRNA; RNA, 3' dTdT, backbone not given here) [GCP-5, siRNA directed to GCP5]”, the “inhibition of nocodazole-induced shift” value in the data set with RPE cells [2] is recorded as “prevented nocodazole-induced shift”.
The same measure, in the same setting: the same measure for “UAUGAGCAUUGAGGCAGAG (siRNA; RNA, 3' dTdT, backbone not given here) [ninein]”: “did not cause a pronounced inhibition of the shift”.
Turning to “UCUAUCCGAAAGCCCAGUC (siRNA; RNA, 3' dTdT, backbone not given here) [CNAP, siRNA directed to cNAP1]”, the “inhibition of nocodazole-induced shift” value in the data set with RPE cells [2] is given as “prevented nocodazole-induced shift”. Besides, the “incorporation” value in the data set on RPE cells [3] is reported as “clearly inhibited incorporation of BrDU”.
On to “GCACAGUAAAUACCCACUA (siRNA; RNA, 3' dTdT, backbone not given here) [siCDC14, siRNA directed to CDC14A]”, for which, in the data set on cdc14A, the “cells displaying lower anti-cdc14A fluorescence intensity than the lowest control (siLamin treated) cell” value turned out to be 68%.
As for “CUGGACUUCCAGAAGAACA (siRNA; RNA, 3' dTdT, backbone not given here) [lamin, control siRNA directed to lamin A/C, reference compound]”, the “cells that never divided” value in the data set with RPE cells [1] is reported as around 7%.
On to “AAGAGAAGCAGAUGCUGCA (siRNA; RNA, 3' dTdT, backbone not given here) [siGCP3, siRNA directed to GCP3]”, for which the “effect of siRNA on nocodazole-induced shift from G1 to G2/M peak” value in the data set with RPE1 cells (siRNA alone) is listed as “inhibited this shift”. The “inhibition of nocodazole-induced shift” value with RPE cells [2] is recorded as “prevented nocodazole-induced shift”.
